According to US8530501B2, “Salts and crystalline forms of a factor Xa inhibitor” (Millennium Pharmaceuticals, Inc., priority 2009, dated 2013):

Key:
[1] = Thermodynamic aqueous solubility by HPLC (filtration method); format: physicochemical; settings: for pH: pH of the solubility suspension; for pH (with aqueous solubility): pH of suspension
Description: The aqueous thermodynamic solubility of selected salt forms was measured using the filtration method as described in Example 10.
The suspension was equilibrated at 25° C. for 24 hours then the pH was measured. The suspension was then filtered through a glass fiber C filter into a 96 well plate. The filtrate was then diluted by a factor of 101. Quantitation was by HPLC with reference to a standard solution of approximately 0.1 mg/mL in DMSO. Different volumes of the standard, diluted and undiluted sample solutions were injected. The solubility was calculated using the peak areas determined by integration of the peak found at the same retention time as the principal peak in the standard injection.

[2] = Stability on storage at 40° C./75% RH (XRPD, HPLC purity); format: physicochemical; settings: for stability with respect to solid form and chemical purity: 40° C./75% RH (elevated humidity and temperature); for crystallinity upon storage (XRPD): 40° C./75% RH, no change in solid form; for Purity post 40° C./75% RH: HPLC purity after seventeen days at 40° C./75% RH; for Purity as isolated: HPLC purity pre 40° C./75% RH; for drop in chemical purity: upon storage at 40° C./75% RH; for physical stability: 6 months of storage at 40° C./75% RH
Description: […] No significant thermal events were seen before degradation began for both the phosphate salt and the 1-hydroxy-2-naphthoate salts.

[3] = Gravimetric Vapour Sorption (GVS); format: physicochemical; settings: for physical stability after moisture exposure (XRPD pre- and post-GVS): exposed up to 90% RH at 25° C.; for Hygroscopicity: moisture absorbed by weight: between 0 and 90% relative humidity
Description: Sorption isotherms were obtained using a SMS HT-DVS moisture sorption analyser by Surface Measurement Systems Limited, Middlesex, UK, controlled by SMS Analysis Suite software. The sample temperature was maintained at 25° C. by the instrument controls. The humidity was controlled by mixing streams of dry and wet nitrogen, with a total flow rate of 400 mL/min. The relative humidity was measured by a calibrated optical dew point transmitter (dynamic range of 0.5-100% RH), located near the sample. The weight change, (mass relaxation) of the sample as a function of % RH was constantly monitored by the microbalance (accuracy±0.005 mg).
Typically 5-20 mg of sample was placed in a tared mesh stainless steel liner within a stainless steel pan under ambient conditions. The sample was loaded and unloaded at 40% RH and 25° C. (typical room conditions).
A moisture sorption isotherm was performed as outlined in Table 13 (2 scans giving 1 complete cycle). The standard isotherm was performed at 25° C. at 10% RH intervals over a 0.5-90% RH range.
The sample was recovered after completion of the isotherm and re-analysed by XRPD.

[4] = Pharmacokinetics in monkey after IV and PO administration; format: in vivo, male rhesus monkeys; settings: PO 5 mg/kg, dose-normalized AUC(0-inf), mean ± SD
Description: (§1) For the dog and monkey study, Compound I was also used. An IV and PO dose of Compound I (1.0 and 5.0 mg/kg, respectively) was prepared. The IV dose was formulated similarly to that used in the rat study (50% PEG300 in water). The PO dose was suspended in 0.5% methylcellulose at a concentration of 1.0 mg/mL with a final pH of approximately 3.50.
(§2) A total of six male Sprague-Dawley rats (n=3/dosing group) from Charles River Laboratories (Hollister, Calif.), three male beagle dogs from Marshall BioResources (North Rose, N.Y.) and three male rhesus monkeys were utilized. […]
(§3) All animals were dosed based on individual weights with a PO gavage volume of 5.0 mL/kg and an IV bolus dose volume of 1.0 mL/kg. […] At collection times, urine volume and water consumption was recorded. […]
(§4) Plasma and urine samples were analyzed for Compound I concentration using a liquid chromatography tandem mass spectrometry (LC/MS/MS). […] The peak areas of the m/z 411→250 product ion (Compound I) were measured against those of the m/z 470→342 product ion (N-(2-(5-chloropyridin-2-ylcarbaomoyl)-4-methoxyphenyl)-4-(N,N-dimethylcarbamimidoyl)-2-fluorobenzamide) in positive ion mode. […]
(§5) Sample Compound I concentrations below the lower limit of quantitation (LLQ) were reported as <0.500 ng/mL. […]

[5] = Pharmacokinetics in rat after IV and PO administration; format: in vivo, male Sprague-Dawley rats; settings: mean ± SD
Description: Compound I was used in the rat investigation. An intravenous (IV) and oral (PO) dose of Compound I (1.0 and 10 mg/kg, respectively) was prepared. The IV dose was solubilized in 50% PEG300 to yield a final concentration of 1.0 mg/mL with a final pH of 5.13. The PO dose was suspended in 0.5% methylcellulose at a concentration of 2.0 mg/mL with a final pH of 2.70.
as §2, §3, §4, §5

[6] = Pharmacokinetics in dog after IV and PO administration; format: in vivo, male beagle dogs; settings: PO 5 mg/kg, dose-normalized AUC(0-inf), mean ± SD
Description: as §1, §2, §3, §4, §5

[7] = Log P and Log D determination (potentiometric titration, octanol:ISA water); format: physicochemical; settings: octanol/ionic-strength adjusted (ISA) water
Description: Data were collected by potentiometric titration on a Sirius GlpKa instrument using three ratios of octanol:ionic-strength adjusted (ISA) water to generate Log P, Log Pion, and Log D values. The data were refined using Refinement Pro software v1.0. Prediction of Log P values was made using ACD v9 and Syracuse KOWWIN™ v1.67 software by Syracuse Research Corp., Syracuse, N.Y., USA.

[8] = pKa determination (Sirius GlpKa); format: physicochemical; settings: 25° C.
Description: Data were collected on a Sirius GlpKa instrument by Sirius Analytical Ltd., UK with a D-PAS attachment. Measurements were made at 25° C. in aqueous solution by UV and in methanol water mixtures by potentiometry. The titration media was ionic-strength adjusted (ISA) with 0.15 M KCl (aq). The values found in the methanol water mixtures were corrected to 0% co-solvent via a Yasuda-Shedlovsky extrapolation. The data were refined using Refinement Pro software v1.0. Prediction of pKa values was made using ACD pKa prediction software v9.

[9] = Thermodynamic aqueous solubility by HPLC (ultracentrifugation method); format: physicochemical
Description: The physical chemical properties of Forms A and B were determined according to the procedures below and the data are summarized in Table 12.
The mixture was allowed to equilibrate for at least 48 hours at 37° C. under mild agitation. At each 24-48 hour interval, an aliquot was removed and the solution was separated from the solid via ultracentrifugation at >60,000 rpm for 20 min and then analyzed by HPLC for the concentration of the compound in the supernatant. Upon equilibration (concentration plateau is reached), the concentration was reported as solubility. This method is the preferred method in determining solubility as it attains the equilibrium and is measurement of the thermodynamic solubility.

[10] = Table 8, filtration method, water, 25° C., 24 hours
[11] = listed as 1-Hydroxy-2-naphthoate 2-5

SMILES | Aqueous solubility [1, 10] | pH ([1]; Table 8) | stability with respect to solid form and chemical purity [2] | crystallinity upon storage (XRPD) [2] | hygroscopicity (GVS) [3] | physical stability [2] | Hygroscopicity: moisture absorbed by weight [3] | physical stability after moisture exposure (XRPD pre- and post-GVS) [3] | pH of saturated solution [9] | Aqueous Solubility (Ultracentrifugation Method) ([9]; in simulated gastric fluid) | Aqueous Solubility (Ultracentrifugation Method) ([9]; in simulated intestinal fluid) | Aqueous Solubility (Ultracentrifugation Method) ([9]; in water) | other results
O=C(NCc1cn(-c2ccc(-n3ccccc3=O)cc2)cn1)c1ccc(Cl)s1 [1-Hydroxy-2-naphthoate Form 1] | 0.05 mg/mL | 6.0 | stable | loss of crystallinity | Neither salts showed hygroscopicity |  |  |  |  |  |  |  | pH (with aqueous solubility) ([1]; salts formed under reflux conditions, listed as 1-hydroxy-2-napthoic acid MeCN): pH = 5.99; Aqueous solubility ([1]; salts formed under reflux conditions, water, listed as 1-hydroxy-2-napthoic acid MeCN): 0.044 mg/mL; pH (with aqueous solubility) ([1]; salts from 100-mg maturation experiments, listed as 2-5): pH = 6.50; Aqueous solubility ([1]; salts from 100-mg maturation experiments, water, listed as 2-5): 0.068 mg/mL; Purity post 40° C./75% RH [2, 11]: 97.7%; Purity as isolated [2, 11]: 98.2%; drop in chemical purity ([2]; listed as 1-hydroxy-2-naphthoate salt): 0.5%; physical stability after moisture exposure (XRPD pre- and post-GVS) ([3]; listed as 1-hydroxy-2-naphthoate salt of Compound I): substantially stable; hysteresis in GVS ([3]; listed as 1-hydroxy-2-naphthoate salt Form 1): showed any hysteresis
O=C(NCc1cn(-c2ccc(-n3ccccc3=O)cc2)cn1)c1ccc(Cl)s1 [Compound I, 5-chloro-N-((1-(4-(2-oxopyridin-1(2H)-yl)phenyl)-1H-imidazol-4-yl)methyl)thiophene-2-carboxamide] |  |  |  |  |  | physically stable |  |  |  |  |  |  | Aqueous solubility ([1]; Table 8, filtration method, water, 25° C., 24 hours, listed as Free base): 0.0008 mg/mL; pH ([1]; Table 8, listed as Free base): 7.8; AUC/D [4]: 8430 ± 3449 kg·h/mL; Dose excreted unchanged in urine ([5]; IV 1 mg/kg): 0.248 ± 0.019%; AUC/D ([5]; PO 10 mg/kg, dose-normalized AUC(0-inf)): 6859 ± 1249 kg·h/mL; AUC/D [6]: 1095 ± 295 kg·h/mL
O=C(NCc1cn(-c2ccc(-n3ccccc3=O)cc2)cn1)c1ccc(Cl)s1 [Mesylate Form A] | 5.1 mg/mL | 1.8 |  |  |  | physically stable | Absorbs approximately 2.5% | good physical stability | 3.3 | 1.3 mg/mL in simulated gastric | 0.02 mg/mL in simulated | 2.0 mg/mL in water | solubility at 24 h ([1]; water, 25 °C, pH 1.8, water, thermodynamic from solid, at pH 1.8): 5100 µg/mL; logP [7]: 2.25; logD ([7]; pH 7.4): 2.85; pKa [8]: 4.46; GVS uptake ([3]; at 90% RH): 2.8 wt %; hysteresis in GVS ([3]; listed as mesylate salt): no hysteresis evident
O=C(NCc1cn(-c2ccc(-n3ccccc3=O)cc2)cn1)c1ccc(Cl)s1 [Mesylate Form B] |  |  |  |  |  |  | Absorbs approximately 2.5% | good physical stability | 2.7 | 12 mg/mL in simulated gastric | 0.06 mg/mL in simulated | 8.5 mg/mL in water | 
O=C(NCc1cn(-c2ccc(-n3ccccc3=O)cc2)cn1)c1ccc(Cl)s1 [Phosphate Form 2] | 4.1 mg/mL | 2.0 | stable |  | Neither salts showed hygroscopicity |  |  |  |  |  |  |  | pH (with aqueous solubility) ([1]; salts formed under reflux conditions, listed as Phosphoric acid MeCN): pH = 2.00; Aqueous solubility ([1]; salts formed under reflux conditions, water, listed as Phosphoric acid MeCN): 4.1 mg/mL
O=C(NCc1cn(-c2ccc(-n3ccccc3=O)cc2)cn1)c1ccc(Cl)s1 [Phosphate Form 3] | 6.9 mg/mL | 2.2 | stable | loss of crystallinity |  |  |  |  |  |  |  |  | pH (with aqueous solubility) ([1]; salts from 100-mg maturation experiments, listed as 2-4): pH = 2.18; Aqueous solubility ([1]; salts from 100-mg maturation experiments, water, listed as 2-4): 6.9 mg/mL; Purity post 40° C./75% RH ([2]; listed as Phosphate 2-4): 97.3%; Purity as isolated ([2]; listed as Phosphate 2-4): 98.0%; drop in chemical purity [2]: 0.7%
